Experimental data taken from patent US20230026808A1, “COMPOUNDS, COMPOSITIONS, AND METHODS FOR TREATING ISCHEMIA-REPERFUSION INJURY AND/OR LUNG INJURY” (YALE UNIVERSITY, priority 2019, published 2023).
Like-named read-outs stand apart in the source and are kept apart here.

Key:
human neutrophils = assay: ROS production assay in human neutrophils; type: cell-based; conditions: 100 nM fMLP
Protocol: For measurement of extracellular ROS release, isolated neutrophils were placed in the reaction buffer (0.25% BSA in HBSS with Ca^2+ and Mg^2+, 10 mM Isoluminol, 100 u/ml HRP) and stimulated with fMLP or PMA. For measurement of total ROS production, neutrophils were incubated with the reaction buffer (0.25% BSA in HBSS with Ca^2+ and Mg^2+, 10 mM Luminol, 100 u/ml HRP), followed with stimulations. Chemiluminescence was read continuously in a plate reader (Perkin Elmer). For reconstituted ROS production system in COS-7 cells, PMA (2 μM) was used for stimulation.
Buffy coat of human blood samples were subjected to neutrophil enrichment using the EasySep Human Neutrophil Enrichment Kit (Stemceli Technologies) according to manufacturer's protocol. Briefly, the depletion antibody cocktail was mixed with the buffy coat followed by incubation with magnetic particles. The EasySep Magnet was then used to immobilize unwanted cells as the label-free neutrophils were poured into another conical tube. Enriched neutrophils were pelleted and resuspended in an assay buffer (Hanks buffer with Ca^2+ and Mg^2+, 0.25% BSA) for ROS production assay or Western analysis.

[1] = tested on: murine hepatitis virus strain 1 (MHV-1); assay: Pazopanib IV in the MHV-1 mouse model; type: in vivo, A/J mice
Protocol: The murine hepatitis virus strain 1 (MHV-1) model was adopted for the pharmacology study. All MHV-1-infected A/J mice developed progressive interstitial edema, neutrophil/macrophage infiltrates, and hyaline membranes, leading to the death of all mice. Two studies have been completed to date. In the first one, mice were administered a 3-dose regimen of the study intervention at 6, 21, and 32 hours after virus inoculation. In the second, mice were administered a 2-dose regimen at 24 and 33 hours after inoculation.
A/J mice, 8 to 10 weeks old, were anaesthetized by Ketamine/Xylazine (100 and 10 mg/kg) and were kept under anesthesia during the whole procedure using Ketamine/Xylazine. After being deeply anesthetized (assessed by applying a noxious stimulus, e.g., toe pinch, and observing no reflex response and no change in either the rate or character of respiration), mice received an intranasal inoculation of 5000 PFU MHV-1 in 20 μL Dulbecco's modified Eagle's medium. After the administration, the mice were monitored until their breathing gradually returned to normal. Then the mice were returned to the recovery cage on the heating pad and monitored for their anesthesia status. […] The green fluorescence of BAL was measured by the plate reader. BAL fluorescence intensities from pazopanib-treated mice were normalized to the intensities from vehicle-control-treated mice wherein higher intensity corresponds to greater permeability.
A/J mice, 8-10 weeks old, were anaesthetized by Ketamine/Xylazine (100 and 10 mg/kg) and were kept under anesthesia during the whole procedure using Ketamine/Xylazine. After being deeply anesthetized (assessed by applying a noxious stimulus, e.g., toe pinch, and observing no reflex response and no change in either the rate or character of respiration), mice received an intranasal inoculation of 6000 PFU MHV-1 in 20 μL Dulbecco's modified Eagle's medium. After the administration, the mice were monitored until their breathing gradually returned to normal. Then the mice were returned to the recovery cage on the heating pad and monitored for their anesthesia status. […]

[2] = 800 mg orally once daily in cancer patients; cited from earlier work
in vivo = conditions: monkey, iv; for AUC(0-inf) / Cmax: 10 mg/kg/day
[3] = IV toxicology and toxicokinetic studies in rats; conditions: for safety margin based on Cmax: vs Cmax 3.4 μg/mL in man (20 mg IV)
[4] = rat, 5 days, IV 20 minute infusion

Cc1ccc(Nc2nccc(N(C)c3ccc4c(C)n(C)nc4c3)n2)cc1S(N)(=O)=O [pazopanib, 5-((4-((2,3-dimethyl-2H-indazol-6-yl)(methyl)amino)pyrimidin-2-yl)amino)-2-methylbenzenesulfonamide]
ROS production (human neutrophils): increases ROS production
projected clinical efficacious dose ([1]; assuming 70 kg human): approximately 16.8 mg
human equivalent dose of efficacious dose ([1]; from 3 mg/kg in mouse): 0.24 mg/kg
efficacious dose ([1]; mouse coronavirus-induced lung injury model): approximately 3 mg/kg
margin of safety based on AUC values (2-week rat and monkey studies): < 10 fold
safety margin based on Cmax (female monkeys): 23 fold
safety margin based on Cmax (male monkeys): 25 fold
HED for 70 kg human (monkey, 2-week study): 224 mg
Margin of safety (monkey, 5 days, IV 20 minute infusion, clinical dose 20 mg/day or 0.29 mg/kg): 33.1X
t1/2 (monkeys): a few hours
tolerability [2]: well-tolerated
AUC(0-inf) (in vivo; female): 167 µg·h/mL
Cmax (in vivo; female): 80 µg/mL
AUC(0-inf) (in vivo; male): 143 µg·h/mL
Cmax (in vivo; male): 85 µg/mL
NOAEL at 2 weeks (in vivo; NOAEL (no observed adverse effect level), monkeys, 2-week GLP IV infusion (20-minute)): 10 mg/kg/day
NOAEL at 5 days (in vivo; NOAEL, 5 days, IV 20 minute infusion): 30 mg/kg
NOAEL at 14 days (in vivo; NOAEL, 14 days, IV 20 minute infusion): 10 mg/kg
Margin of safety ([3]; 2-week rat study vs 20 mg clinical starting dose): 5.6 fold
safety margin based on Cmax ([3]; female rats): 16.2 fold
safety margin based on Cmax ([3]; male rats): 13.8 fold
HED for 70 kg human ([3]; rat, 2-week study): 112 mg
HED of NOAEL [3, 4]: 8 mg/kg
NOAEL [3, 4]: 50 mg/kg
Margin of safety ([3]; rat, 5 days, IV 20 minute infusion, clinical dose 20 mg/day or 0.29 mg/kg): 27.6X
Margin of safety ([3]; rat, 14 days, IV 20 minute infusion, clinical dose 20 mg/day or 0.29 mg/kg): 5.6X
t1/2 ([3]; rat, in vivo): a few hours
HED of NOAEL ([3]; rat, single dose, IV bolus): 4.8 mg/kg
Margin of safety ([3]; rat, single dose, IV bolus, clinical dose 20 mg/day or 0.29 mg/kg): 16.6X
